Test results from the NIST ThermoML archive (doi:10.1016/j.jct.2008.09.002).

Columns and labels:
[1] = molar heat capacity at constant pressure; xn = mol fraction of the nth substance listed; conditions: 101.3 kPa, Liquid, Small sample (50 mg) DSC
[2] = excess molar enthalpy (molar enthalpy of mixing); xn = mol fraction of the nth substance listed; conditions: 303.15 K, 101.3 kPa, Liquid, Calvet calorimetry
[3] = xn = mol fraction of the nth substance listed; conditions: 101.3 kPa, Liquid, Vibrating tube method

C[N+](=O)[O-] [nitromethane] + CCOS(=O)(=O)[O-].CCn1cc[n+](C)c1
Conditions | mass density, [3] [kg/m3] | molar heat capacity at constant pressure, [1] [J/K/mol]
293.15 K, x2 = 0.0513 | 1162.5 | 120.8
293.15 K, x2 = 0.0991 | 1176.4 | 134.3
293.15 K, x2 = 0.2013 | 1196.4 | 164
293.15 K, x2 = 0.3095 | 1209.6 | 195.4
293.15 K, x2 = 0.4073 | 1217.8 | 223.5
293.15 K, x2 = 0.5056 | 1223.9 | –
293.15 K, x2 = 0.5489 | 1226.3 | 264
293.15 K, x2 = 0.5944 | 1228.3 | –
293.15 K, x2 = 0.689 | 1232.1 | 304
293.15 K, x2 = 0.7805 | 1235.1 | 329.9
293.15 K, x2 = 0.8817 | 1237.9 | 358.6
293.15 K, x2 = 0.9398 | 1239.3 | –
293.15 K, x2 = 0.9522 | 1239.6 | –
298.15 K, x2 = 0.0513 | 1156.4 | 121.1
298.15 K, x2 = 0.0991 | 1170.9 | 134.7
298.15 K, x2 = 0.2013 | 1191.5 | 164.6
298.15 K, x2 = 0.3095 | 1205.1 | 196.1
298.15 K, x2 = 0.4073 | 1213.6 | 224.4
298.15 K, x2 = 0.5056 | 1220 | –
298.15 K, x2 = 0.5489 | 1222.4 | 265.2
298.15 K, x2 = 0.5944 | 1224.5 | –
298.15 K, x2 = 0.689 | 1228.4 | 305.5
298.15 K, x2 = 0.7805 | 1231.5 | 331.6
298.15 K, x2 = 0.8817 | 1234.4 | 360.5
298.15 K, x2 = 0.9398 | 1235.8 | –
298.15 K, x2 = 0.9522 | 1236.2 | –
303.15 K, x2 = 0.0513 | 1150.4 | 121.6
303.15 K, x2 = 0.0991 | 1165.3 | 135.3
303.15 K, x2 = 0.2013 | 1186.6 | 165.3
303.15 K, x2 = 0.3095 | 1200.7 | 196.9
303.15 K, x2 = 0.4073 | 1209.5 | 225.5
303.15 K, x2 = 0.5056 | 1216 | –
303.15 K, x2 = 0.5489 | 1218.5 | 266.6
303.15 K, x2 = 0.5944 | 1220.7 | –
303.15 K, x2 = 0.689 | 1224.7 | 307.2
303.15 K, x2 = 0.7805 | 1228 | 333.5
303.15 K, x2 = 0.8817 | 1230.9 | 362.6
303.15 K, x2 = 0.9398 | 1232.4 | –
303.15 K, x2 = 0.9522 | 1232.7 | –
308.15 K, x2 = 0.0513 | 1144.3 | 122.1
308.15 K, x2 = 0.0991 | 1159.7 | 135.9
308.15 K, x2 = 0.2013 | 1181.7 | 166
308.15 K, x2 = 0.3095 | 1196.2 | 197.8
308.15 K, x2 = 0.4073 | 1205.3 | 226.7
308.15 K, x2 = 0.5056 | 1212.1 | –
308.15 K, x2 = 0.5489 | 1214.6 | 268.1
308.15 K, x2 = 0.5944 | 1216.9 | –
308.15 K, x2 = 0.689 | 1221 | 308.9
308.15 K, x2 = 0.7805 | 1224.4 | 335.5
308.15 K, x2 = 0.8817 | 1227.5 | 364.8
308.15 K, x2 = 0.9398 | 1229 | –
308.15 K, x2 = 0.9522 | 1229.3 | –
313.15 K, x2 = 0.0513 | 1138.2 | 122.7
313.15 K, x2 = 0.0991 | 1154.2 | 136.6
313.15 K, x2 = 0.2013 | 1176.9 | 166.8
313.15 K, x2 = 0.3095 | 1191.8 | 198.7
313.15 K, x2 = 0.4073 | 1201.2 | 227.9
313.15 K, x2 = 0.5056 | 1208.2 | –
313.15 K, x2 = 0.5489 | 1210.8 | 269.7
313.15 K, x2 = 0.5944 | 1213.1 | –
313.15 K, x2 = 0.689 | 1217.4 | 310.9
313.15 K, x2 = 0.7805 | 1220.9 | 337.7
313.15 K, x2 = 0.8817 | 1224 | 367.1
313.15 K, x2 = 0.9398 | 1225.6 | –
313.15 K, x2 = 0.9522 | 1225.9 | –
318.15 K, x2 = 0.0513 | 1132.2 | 123.2
318.15 K, x2 = 0.0991 | 1148.6 | 137.2
318.15 K, x2 = 0.2013 | 1172 | 167.6
318.15 K, x2 = 0.3095 | 1187.4 | 199.7
318.15 K, x2 = 0.4073 | 1197.1 | 229.2
318.15 K, x2 = 0.5056 | 1204.2 | –
318.15 K, x2 = 0.5489 | 1207 | 271.4
318.15 K, x2 = 0.5944 | 1209.3 | –
318.15 K, x2 = 0.689 | 1213.8 | 312.9
318.15 K, x2 = 0.7805 | 1217.3 | 340
318.15 K, x2 = 0.8817 | 1220.6 | 369.6
318.15 K, x2 = 0.9398 | 1222.2 | –
318.15 K, x2 = 0.9522 | 1222.5 | –

[2]
Conditions | excess molar enthalpy [kcal/mol]
x2 = 0.1001 | -0.0688
x2 = 0.1977 | -0.116
x2 = 0.3075 | -0.142
x2 = 0.4001 | -0.154
x2 = 0.5071 | -0.148
x2 = 0.6026 | -0.131
x2 = 0.6953 | -0.108
x2 = 0.8026 | -0.0736
x2 = 0.8668 | -0.05

C[N+](=O)[O-] [nitromethane] + CCCCn1cc[n+](C)c1.O=S(=O)([O-])C(F)(F)F
Conditions | mass density, [3] [kg/m3] | molar heat capacity at constant pressure, [1] [J/K/mol]
293.15 K, x2 = 0.0495 | 1173.6 | 121.1
293.15 K, x2 = 0.0972 | 1196.4 | 136
293.15 K, x2 = 0.2021 | 1229.9 | 168.8
293.15 K, x2 = 0.2955 | 1249.1 | 198.5
293.15 K, x2 = 0.4015 | 1264.3 | 231.5
293.15 K, x2 = 0.495 | 1274.2 | 261.4
293.15 K, x2 = 0.5993 | 1282.6 | 294.6
293.15 K, x2 = 0.6939 | 1288.6 | 324.4
293.15 K, x2 = 0.7858 | 1293.3 | 353.8
293.15 K, x2 = 0.8697 | 1296.9 | 380.5
293.15 K, x2 = 0.9286 | 1299.1 | 398.8
298.15 K, x2 = 0.0495 | 1167.4 | 121.4
298.15 K, x2 = 0.0972 | 1190.6 | 136.4
298.15 K, x2 = 0.2021 | 1224.7 | 169.4
298.15 K, x2 = 0.2955 | 1244.2 | 199.4
298.15 K, x2 = 0.4015 | 1259.7 | 232.6
298.15 K, x2 = 0.495 | 1269.7 | 262.6
298.15 K, x2 = 0.5993 | 1278.2 | 296.1
298.15 K, x2 = 0.6939 | 1284.3 | 326.1
298.15 K, x2 = 0.7858 | 1289.1 | 355.6
298.15 K, x2 = 0.8697 | 1292.8 | 382.7
298.15 K, x2 = 0.9286 | 1295.1 | 400.9
303.15 K, x2 = 0.0495 | 1161.2 | 121.8
303.15 K, x2 = 0.0972 | 1184.8 | 137
303.15 K, x2 = 0.2021 | 1219.4 | 170.1
303.15 K, x2 = 0.2955 | 1239.3 | 200.3
303.15 K, x2 = 0.4015 | 1255 | 233.9
303.15 K, x2 = 0.495 | 1265.2 | 263.9
303.15 K, x2 = 0.5993 | 1273.9 | 297.8
303.15 K, x2 = 0.6939 | 1280.1 | 327.9
303.15 K, x2 = 0.7858 | 1285 | 357.5
303.15 K, x2 = 0.8697 | 1288.8 | 385
303.15 K, x2 = 0.9286 | 1291.1 | 403.3
308.15 K, x2 = 0.0495 | 1154.9 | 122.3
308.15 K, x2 = 0.0972 | 1178.9 | 137.5
308.15 K, x2 = 0.2021 | 1214.2 | 170.9
308.15 K, x2 = 0.2955 | 1234.3 | 201.4
308.15 K, x2 = 0.4015 | 1250.3 | 235.2
308.15 K, x2 = 0.495 | 1260.7 | 265.3
308.15 K, x2 = 0.5993 | 1269.6 | 299.5
308.15 K, x2 = 0.6939 | 1275.9 | 329.8
308.15 K, x2 = 0.7858 | 1280.9 | 359.6
308.15 K, x2 = 0.8697 | 1284.7 | 387.4
308.15 K, x2 = 0.9286 | 1287.1 | 405.7
313.15 K, x2 = 0.0495 | 1148.8 | 122.8
313.15 K, x2 = 0.0972 | 1173.2 | 138.2
313.15 K, x2 = 0.2021 | 1209 | 171.7
313.15 K, x2 = 0.2955 | 1229.5 | 202.5
313.15 K, x2 = 0.4015 | 1245.7 | 236.6
313.15 K, x2 = 0.495 | 1256.3 | 266.8
313.15 K, x2 = 0.5993 | 1265.3 | 301.3
313.15 K, x2 = 0.6939 | 1271.7 | 331.8
313.15 K, x2 = 0.7858 | 1276.8 | 361.8
313.15 K, x2 = 0.8697 | 1280.7 | 389.9
313.15 K, x2 = 0.9286 | 1283.1 | 408.3
318.15 K, x2 = 0.0495 | 1142.5 | 123.3
318.15 K, x2 = 0.0972 | 1167.4 | 138.7
318.15 K, x2 = 0.2021 | 1203.7 | 172.5
318.15 K, x2 = 0.2955 | 1224.6 | 203.6
318.15 K, x2 = 0.4015 | 1241.1 | 238
318.15 K, x2 = 0.495 | 1251.8 | 268.3
318.15 K, x2 = 0.5993 | 1261 | 303.2
318.15 K, x2 = 0.6939 | 1267.5 | 334
318.15 K, x2 = 0.7858 | 1272.7 | 364.1
318.15 K, x2 = 0.8697 | 1276.7 | 392.6
318.15 K, x2 = 0.9286 | 1279.1 | 411.1

[2]
Conditions | excess molar enthalpy [kcal/mol]
x2 = 0.1022 | 0.00932
x2 = 0.1994 | 0.0136
x2 = 0.3029 | 0.0148
x2 = 0.4044 | 0.0141
x2 = 0.5067 | 0.0134
x2 = 0.5931 | 0.0108
x2 = 0.703 | 0.00741
x2 = 0.7814 | 0.0012
x2 = 0.8933 | -0.00215
